In assay [1] the target is Histamine H1 receptor (Cavia porcellus) (UniProt P31389). The assay is described as follows: Inhibition of histamine H1 receptor in guinea pig ileum assessed as inhibition of histamine-induced muscle spasms at 2 x 10 '-3 mg/ml after 5 mins (reference value: 0.31 %). The class given is tissue-based.
Assay [2] has as its system Cavia porcellus. The assay is described as follows: Antiasthmatic activity in guinea pig assessed as inhibition of histamine phosphate solution-induced asthmatic reaction measured as increase in asthmogenic latency period at 0.5 mg/kg administered as intragastric (reference value: 99.30 +/- 30.06 sec). The class given is functional.
Assay [3] has as its system Cavia porcellus. The assay can be described thus: Antiasthmatic activity in guinea pig assessed as inhibition of histamine phosphate solution-induced asthmatic reaction measured as increase in asthmogenic latency period at 0.2 mg/kg administered as intragastric (reference value: 95.50 +/- 18.98 sec). In kind it is functional.

Molecules are shown by their SMILES.

Sequence of Histamine H1 receptor (Cavia porcellus) (P31389 whole entry): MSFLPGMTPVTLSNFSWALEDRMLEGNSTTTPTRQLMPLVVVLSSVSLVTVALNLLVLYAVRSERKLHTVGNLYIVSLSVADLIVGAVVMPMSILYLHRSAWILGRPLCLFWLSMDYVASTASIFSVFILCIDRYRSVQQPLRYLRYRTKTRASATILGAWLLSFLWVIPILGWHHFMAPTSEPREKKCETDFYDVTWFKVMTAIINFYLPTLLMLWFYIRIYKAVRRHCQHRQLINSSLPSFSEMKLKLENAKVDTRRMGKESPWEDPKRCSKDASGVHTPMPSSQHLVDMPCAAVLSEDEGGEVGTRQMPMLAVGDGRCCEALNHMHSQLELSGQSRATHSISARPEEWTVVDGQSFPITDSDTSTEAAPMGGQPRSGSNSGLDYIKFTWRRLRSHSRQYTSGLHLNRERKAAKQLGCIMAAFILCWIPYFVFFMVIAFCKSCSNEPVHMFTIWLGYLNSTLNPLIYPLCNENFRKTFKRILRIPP

On to `C[C@H](CO)N1CCC(=C2c3ccc(Cl)cc3CCc3cccnc32)CC1`, for which the inhibition in assay [1] worked out at 32.4%. In addition, the Time with Cavia porcellus [2] was found to be 215.6 s; in the assay with Cavia porcellus [3], 111.1 s.
The like results for `C[C@@H](CO)N1CCC(=C2c3ccc(Cl)cc3CCc3cccnc32)CC1` were, in that order, 49.7%, 209.7 s and 112.8 s.
The matching figures for `CC[C@H](CO)N1CCC(=C2c3ccc(Cl)cc3CCc3cccnc32)CC1`: 29.4%, 229.2 s and 125.3 s.
For the compound `CC[C@@H](CO)N1CCC(=C2c3ccc(Cl)cc3CCc3cccnc32)CC1`, the inhibition in assay [1] was found to be 53.5%. The Time worked out at 216 s with Cavia porcellus [2] and 123.1 s in the assay with Cavia porcellus [3].
Regarding `C[C@@H](c1ccccc1)N1CCC(=C2c3ccc(Cl)cc3CCc3cccnc32)CC1`, in assay [1], the inhibition came out at 32.1%. The Time with Cavia porcellus [2] is recorded as 273.2 s; with Cavia porcellus [3], 170.2 s.
In the case of `OCCCN1CCC(=C2c3ccc(Cl)cc3CCc3cccnc32)CC1`, in assay [1], the inhibition was found to be 53.7%. The Time with Cavia porcellus [2] and in the assay on Cavia porcellus [3] was 360 s each time.
Regarding `C[C@H](c1ccccc1)N1CCC(=C2c3ccc(Cl)cc3CCc3cccnc32)CC1`, the inhibition in assay [1] is 31.4%. Besides, the Time in the assay with Cavia porcellus [2] is given as 309.6 s; in the assay on Cavia porcellus [3], 210.6 s.
The matching figures for `CN(C)CCC(c1ccc(Cl)cc1)c1ccccn1` (configuration not stated) [CHLORPHENIRAMINE]: 41.3%, 214.7 s and 105.7 s.
With `OCCN1CCC(=C2c3ccc(Cl)cc3CCc3cccnc32)CC1`, in assay [1], the inhibition is 50.6%. The Time in the assay with Cavia porcellus [2] was found to be 248.5 s; in the assay with Cavia porcellus [3], 133.3 s.

Usually inhibition stands for the percentage by which the read-out fell short of the control.

For the origin of these results see ChEMBL document CHEMBL1806439, “Synthesis and antihistamine evaluations of novel loratadine analogues” (2011).
